Assay results reported in PubChem BioAssay AID1417 (Emory University Molecular Libraries Screening Center, 2008).

Target: Induced myeloid leukemia cell differentiation protein Mcl-1 (Homo sapiens) (UniProt Q07820)
Assay: Mcl-1/Noxa binding inhibitor potency, dose response, biochemical, TR-FRET (AID 1417)
Conditions: Mcl-1/Noxa peptide interaction, cell-free TR-FRET (terbium/rhodamine), 2 h; measured here: absolute IC50

Induced myeloid leukemia cell differentiation protein Mcl-1 (Homo sapiens), sequence (Q07820 whole entry, looked up): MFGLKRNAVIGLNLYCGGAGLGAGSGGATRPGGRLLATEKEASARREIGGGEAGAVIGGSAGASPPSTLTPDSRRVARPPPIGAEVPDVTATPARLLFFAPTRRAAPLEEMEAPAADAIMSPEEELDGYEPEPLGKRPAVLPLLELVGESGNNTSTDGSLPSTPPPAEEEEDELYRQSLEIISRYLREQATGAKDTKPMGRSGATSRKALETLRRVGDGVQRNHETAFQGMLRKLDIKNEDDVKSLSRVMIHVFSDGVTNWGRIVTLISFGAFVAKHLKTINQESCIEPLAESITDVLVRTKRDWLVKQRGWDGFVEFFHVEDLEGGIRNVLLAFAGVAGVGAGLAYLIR

SMILES: CCN(c1ccc(NC(=O)COC(=O)/C=C/c2cccs2)cc1)C(C)C
- IC50: 3.81 µM

SMILES: Cc1ccc(OCC(=O)Nc2ccc(N3CCCC3)cc2)cc1C
- IC50: 7.07 µM

SMILES: COc1ccc(N2CCC(CNC(=O)Nc3cccc(OC)c3)C2)cc1 (configuration not stated)
- IC50: > 54 µM

SMILES: COc1cc(/C=N/NC(=O)c2cc(-c3ccco3)nc3ccccc23)cc(OC)c1O
- IC50: < 0.4 µM

SMILES: N=C1S/C(=C\c2ccc(-c3cccc(Cl)c3)o2)C(=O)N1c1nccs1
- IC50: 0.861 µM

SMILES: O=C(Cc1csc(N2CCOCC2)n1)N/N=C/c1ccc(O)c(O)c1O
- IC50: < 0.4 µM

SMILES: CC1CC1C(=O)OCC(=O)Nc1ccc2[nH]c(=O)[nH]c2c1 (configuration not stated)
- IC50: 4.38 µM

SMILES: O=c1oc2ccccc2cc1-c1csc(Nc2ccc(O)cc2)n1
- IC50: 0.716 µM

SMILES: CCOc1cc(/C=N/NC(=O)c2ccc(-c3csc(Nc4ccc(C)cc4)n3)cc2)ccc1OCC(=O)O
- IC50: 1.07 µM

SMILES: CCNc1ccc(Br)cc(C(=O)/C=C/c2ccc(Cl)cc2)c1=O
- IC50: 2.03 µM

SMILES: CNc1sc(C(=O)c2ccc(F)cc2)c(N)c1-c1nc2ccccc2s1
- IC50: 2.09 µM

SMILES: Cc1ccc(C2C(/C=C3/SC(=S)NC3=O)=C(c3cccs3)Oc3ccccc32)cc1 (configuration not stated)
- IC50: < 0.4 µM

SMILES: Cc1ccc(C(=O)Nc2ccc(N3CCCC3)cc2)c(C)c1
- IC50: > 54 µM

SMILES: O=c1nc2s/c(=C\c3ccc(-c4ccccc4[N+](=O)[O-])o3)c(=O)n2nc1-c1ccccc1
- IC50: < 0.4 µM

SMILES: O=C(O)c1ccc(NS(=O)(=O)c2ccc3c(c2)C2C=CCC2C(c2ccccc2F)N3)cc1 (configuration not stated)
- IC50: 1.27 µM

SMILES: COc1ccc(OC)c(/C=N/c2oc(-c3ccco3)c(-c3ccco3)c2C#N)c1
- IC50: 9.72 µM

SMILES: O=C(NCCCCc1ccccc1)C1CC(c2ccccc2[N+](=O)[O-])=NO1 (configuration not stated)
- IC50: > 54 µM

SMILES: CC(C)Cn1c(N)c(C(=O)COC(=O)c2cc(-c3ccco3)nc3ccccc23)c(=O)n(C)c1=O
- IC50: 1.45 µM

SMILES: COc1cc2c(ccc3cc(OC)c(OC)c(O)c32)cc1O
- IC50: < 0.4 µM

SMILES: O=C(CNC(=O)C(c1ccccc1)c1ccccc1)N/N=C/c1cccnc1
- IC50: > 54 µM

SMILES: c1ccc(CN=C2NN=C(c3cc4ccccc4o3)CS2)cc1
- IC50: > 54 µM

SMILES: O=C(O)CCC(=O)NCCC1=c2ccccc2=N/C1=C\c1c(O)n(Cc2ccc(F)cc2)c(=S)[nH]c1=O
- IC50: < 0.4 µM

SMILES: Cc1cc2ncn(/N=C/c3ccc([N+](=O)[O-])s3)c2cc1C
- IC50: 5.32 µM

SMILES: Cc1nc(NC(=O)c2ccco2)sc1-c1csc(Nc2ccc(Cl)cc2Cl)n1
- IC50: 1.24 µM

SMILES: CC(=O)Nc1ccc(C2=NNC(=Nc3cccc(S(=O)(=O)N(C)C)c3)SC2)cc1
- IC50: 3.03 µM

SMILES: COC(=O)CSc1ncnc2c1sc1nc(-c3ccco3)c3c(c12)CC(C)(C)OC3
- IC50: 3.55 µM

SMILES: O=c1c2c3c(sc2[nH]c(=S)n1Cc1ccco1)CCC3
- IC50: 1.42 µM

SMILES: CCc1ccc(S(=O)(=O)/N=C2\C=CC(=O)c3ccccc32)cc1
- IC50: < 0.4 µM

SMILES: Cc1sccc1/C=N/NC(=O)c1cccc2ccccc12
- IC50: > 54 µM

SMILES: N#C/C(=C\c1ccc(C(=O)O)cc1)c1nc2sc3c(c2c(=O)[nH]1)CCCC3
- IC50: 2.95 µM

SMILES: CC1=Nc2cccc3cccc(c23)N1
- IC50: 2.63 µM

SMILES: COc1ccc(/C=C2/C(=O)NC(=S)N(C3CC3)C2=O)cc1CN1C(=O)c2ccccc2C1=O
- IC50: 3.11 µM

SMILES: O=c1c(-c2c(O)cc(O)c3c(=O)cc(-c4ccc(O)cc4)oc23)c(-c2ccc(O)cc2)oc2cc(O)cc(O)c12
- IC50: > 54 µM

SMILES: CC1=C(C#N)C(=O)NC(=O)/C1=C/c1ccc(-c2ccc(S(N)(=O)=O)cc2)o1
- IC50: < 0.4 µM

SMILES: O=C1/C(=C/C=C/c2ccco2)SC(=S)N1c1ccc(O)cc1
- IC50: < 0.4 µM

SMILES: O=S(=O)(Nc1cc(Sc2ncn[nH]2)c(O)c2ccccc12)c1ccccc1
- IC50: < 0.4 µM

SMILES: COc1ccc(NC(=O)CSc2ncnc3c2sc2ccccc23)c(OC)c1
- IC50: > 54 µM

SMILES: CSc1cnn(Cc2ccccc2)c(=O)c1SCc1ccccc1
- IC50: > 54 µM

SMILES: CSc1nc(SCCO)c2sc3nc(-c4ccco4)c4c(c3c2n1)CC(C)(C)OC4
- IC50: < 0.4 µM

SMILES: O=C1NC(=S)N(c2ccccc2F)C(=O)/C1=C\c1cccs1
- IC50: 3.77 µM

SMILES: O=C(Nc1ccc(S(=O)(=O)Nc2nccs2)cc1)c1cc(-c2ccncc2)nc2ccccc12
- IC50: < 0.4 µM

SMILES: CCNC(=O)COC(=O)c1cc(-c2ccco2)nc2ccccc12
- IC50: 1.81 µM
